Assay results as given in patent publication US20240360151A1 (SANOFI, priority 2023, published 2024).
pIC50: −log10 of the molar value.

Assays:
[1] = target: T1, NLRP3 inflammasome (Homo sapiens, UniProt Q96P20); assay: IL-1β secretion assay (NLRP3 IC50) in LPS-primed, nigericin-activated THP-1 cells, HTRF; assay type: cell-based; conditions: monocytic THP-1 cells; LPS 10 ng/mL 3 h priming, then compound + nigericin 10 μM 2 h; relative IC50, 10 concentrations, geometric mean
T1 construct: endogenous in cells; host or cells: THP-1 monocytic cells
Summary of the method: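 THP-1 cells primed with LPS 10 ng/mL for 3 h at 37° C., then compound (10-point 1:3 dilution, 0.1% DMSO) added with 10 μM nigericin for 2 h. Supernatant IL-1β measured by HTRF; relative IC50 from a 4-parameter logistic fit, reported as geometric mean.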

[2] = test system: NF-kB pathway (TNF-α secretion by THP-1 cells); assay: TNF-α secretion assay in LPS-stimulated THP-1 cells, Lumit immunoassay; assay type: cell-based, human; conditions: Homo sapiens, THP-1, 3 h, monocytic THP-1 cells, LPS 10 ng/mL, relative IC50, 10 concentrations, geometric mean
Summary of the method: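 THP-1 monocytes in RPMI with 5% FBS were treated with compound, then stimulated with 10 ng/mL LPS for 3 h. Secreted TNF-α was measured in-plate by Lumit immunoassay. Relative IC50 came from 10-concentration curves fitted with a 4-parameter logistic model, reported as geometric mean.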

T1 sequence (Q96P20 whole entry): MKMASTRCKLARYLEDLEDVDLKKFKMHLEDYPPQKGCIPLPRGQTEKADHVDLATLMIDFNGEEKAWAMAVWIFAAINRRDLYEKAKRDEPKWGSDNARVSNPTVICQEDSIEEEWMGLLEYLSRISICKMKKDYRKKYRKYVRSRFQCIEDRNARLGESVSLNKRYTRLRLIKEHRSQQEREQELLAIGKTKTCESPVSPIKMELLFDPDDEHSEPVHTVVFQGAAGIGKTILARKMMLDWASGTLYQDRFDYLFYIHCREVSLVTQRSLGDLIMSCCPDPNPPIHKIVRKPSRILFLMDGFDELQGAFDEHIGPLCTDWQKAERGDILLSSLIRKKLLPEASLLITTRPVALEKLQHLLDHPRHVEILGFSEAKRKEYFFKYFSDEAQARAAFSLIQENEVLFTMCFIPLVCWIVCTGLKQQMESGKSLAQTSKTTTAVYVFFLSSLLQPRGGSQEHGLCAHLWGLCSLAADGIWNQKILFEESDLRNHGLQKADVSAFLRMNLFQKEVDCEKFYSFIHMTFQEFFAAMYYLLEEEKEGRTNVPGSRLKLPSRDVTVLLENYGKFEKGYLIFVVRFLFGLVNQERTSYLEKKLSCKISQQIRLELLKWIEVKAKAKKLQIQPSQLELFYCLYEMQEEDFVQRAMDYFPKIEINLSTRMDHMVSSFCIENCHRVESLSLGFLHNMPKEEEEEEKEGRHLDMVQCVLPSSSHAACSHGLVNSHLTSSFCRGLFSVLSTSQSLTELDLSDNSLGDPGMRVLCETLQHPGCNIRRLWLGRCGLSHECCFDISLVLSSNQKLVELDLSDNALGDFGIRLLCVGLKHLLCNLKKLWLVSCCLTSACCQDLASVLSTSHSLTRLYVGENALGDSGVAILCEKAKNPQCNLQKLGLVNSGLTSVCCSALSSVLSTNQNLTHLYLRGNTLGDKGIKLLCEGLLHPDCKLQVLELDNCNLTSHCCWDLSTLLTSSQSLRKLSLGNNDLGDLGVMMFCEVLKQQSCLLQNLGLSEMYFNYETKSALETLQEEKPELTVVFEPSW

pIC50 [1]	pIC50 [2]	Structure (SMILES)
7.28	< 5.00	Cc1cc(C(F)(F)F)cc(O)c1-c1ccc(N2C[C@@H](O)CC2=O)nn1 [Example 62, (4S)-4-hydroxy-1-[6-[2-hydroxy-6-methyl-4-(trifluoromethyl)phenyl]pyridazin-3-yl]pyrrolidin-2-one]
8.22	< 5.00	Cc1cc(Cl)cc(O)c1-c1ccc(N2CCO[C@H](CO)C2)nn1 [Example 63, 5-chloro-2-[6-[(2S)-2-(hydroxymethyl)morpholin-4-yl]pyridazin-3-yl]-3-methyl-phenol]
6.65	< 5.00	Oc1cc(Cl)cc(Cl)c1-c1ccc(N2CC3(COC3)C2)nn1 [Example 64, 3,5-dichloro-2-[6-(2-oxa-6-azaspiro[3.3]heptan-6-yl)pyridazin-3-yl]phenol]
6.82	< 5.00	Cc1cc(C)c(-c2ccc(N3CC[C@@H](CO)C3)nn2)c(O)c1 [Example 65, 2-[6-[(3R)-3-(hydroxymethyl)pyrrolidin-1-yl]pyridazin-3-yl]-3,5-dimethyl-phenol]
6.52	< 5.00	Oc1cc(Cl)cc(Cl)c1-c1ccc(N2CCC3(CC2)COC3)nn1 [Example 66, 3,5-dichloro-2-[6-(2-oxa-7-azaspiro[3.5]nonan-7-yl)pyridazin-3-yl]phenol]
6.51	< 5.00	Cc1cc(C)c(-c2ccc(N3CCC[C@H](O)C3)nn2)c(O)c1 [Example 67, (3S)-1-[6-(2-hydroxy-4,6-dimethyl-phenyl)pyridazin-3-yl]piperidin-3-ol]
6.70	< 5.00	Cc1cc(C)c(-c2ccc(N3CCC[C@H](N)C3)nn2)c(O)c1 [Example 69, 2-[6-[(3S)-3-amino-1-piperidyl]pyridazin-3-yl]-3,5-dimethyl-phenol]
6.33	< 5.00	Cc1cc(C)c(-c2ccc(N3CC[C@@H](O)C3)nn2)c(O)c1 [Example 70, (3R)-1-[6-(2-hydroxy-4,6-dimethyl-phenyl)pyridazin-3-yl]pyrrolidin-3-ol]
6.57	< 5.00	Cc1cc(C)c(-c2ccc(N3CC[C@H](O)C3)nn2)c(O)c1 [Example 71, (3S)-1-[6-(2-hydroxy-4,6-dimethyl-phenyl)pyridazin-3-yl]pyrrolidin-3-ol]
6.97	< 5.00	CCc1cc(N2CCO[C@H](CO)C2)nnc1-c1ccc(C)cc1O [Example 72, 2-[4-ethyl-6-[(2S)-2-(hydroxymethyl)morpholin-4-yl]pyridazin-3-yl]-5-methyl-phenol]
7.25	< 5.00	CCc1cc(N2CCO[C@H](CO)C2)nnc1-c1ccc(Cl)cc1O [Example 73, 5-chloro-2-[4-ethyl-6-[(2S)-2-(hydroxymethyl)morpholin-4-yl]pyridazin-3-yl]phenol]
6.39	< 5.00	Cc1ccc(-c2nnc(N3CCO[C@H](CO)C3)cc2C(C)C)c(O)c1 [Example 74, 2-[6-[(2S)-2-(hydroxymethyl)morpholin-4-yl]-4-isopropyl-pyridazin-3-yl]-5-methyl-phenol]
6.74	5.02	CC(C)c1cc(N2CCO[C@H](CO)C2)nnc1-c1ccc(Cl)cc1O [Example 75, 5-chloro-2-[6-[(2S)-2-(hydroxymethyl)morpholin-4-yl]-4-isopropyl-pyridazin-3-yl]phenol]
7.18	5.07	Cc1ccc(-c2nnc(N3CCO[C@H](CO)C3)cc2C)c(O)c1 [Example 76, 2-[6-[(2S)-2-(hydroxymethyl)morpholin-4-yl]-4-methyl-pyridazin-3-yl]-5-methyl-phenol]
6.87	< 5.00	Cc1ccc(-c2nnc(N3CCO[C@H](CO)C3)c3c2CCC3)c(O)c1 [Example 77, 2-[4-[(2S)-2-(hydroxymethyl)morpholin-4-yl]-6,7-dihydro-5H-cyclopenta[d]pyridazin-1-yl]-5-methyl-phenol]
6.36	< 5.00	OC[C@@H]1CN(c2nnc(-c3ccc(Cl)cc3O)c3c2CCC3)CCO1 [Example 78, 5-chloro-2-[4-[(2S)-2-(hydroxymethyl)morpholin-4-yl]-6,7-dihydro-5H-cyclopenta[d]pyridazin-1-yl]phenol]
6.55	5.02	Cc1cc(C)c(-c2ccc(N3CC[C@H](CO)C3)nn2)c(O)c1 [Example 79, 2-[6-[(3S)-3-(hydroxymethyl)pyrrolidin-1-yl]pyridazin-3-yl]-3,5-dimethyl-phenol]
6.68	< 5.00	Cc1ccc(-c2nnc(N3CCO[C@H](CO)C3)c(C)c2C)c(O)c1 [Example 80, 2-[6-[(2S)-2-(hydroxymethyl)morpholin-4-yl]-4,5-dimethyl-pyridazin-3-yl]-5-methyl-phenol]

pIC50 [1]	pIC50 [2]	Structure (SMILES)
6.79	5.01	Cc1c(-c2ccc(Cl)cc2O)nnc(N2CCO[C@H](CO)C2)c1C [Example 81, 5-chloro-2-[6-[(2S)-2-(hydroxymethyl)morpholin-4-yl]-4,5-dimethyl-pyridazin-3-yl]phenol]
7.48	< 5.00	Cc1cc(N2CCO[C@H](CO)C2)nnc1-c1ccc(Cl)cc1O [Example 85, 5-chloro-2-[6-[(2S)-2-(hydroxymethyl)morpholin-4-yl]-4-methyl-pyridazin-3-yl]phenol]
6.30	< 5.00	Cc1cc(C)c(-c2ccc(N3C[C@@H](O)CC3=O)nn2)c(O)c1 [Example 86, (4S)-4-hydroxy-1-[6-(2-hydroxy-4,6-dimethyl-phenyl)pyridazin-3-yl]pyrrolidin-2-one]
6.51	< 5.00	Cc1cc(C)c(-c2ccc(N3CCO[C@@H](CN)C3)nn2)c(O)c1 [Example 87, 2-[6-[(2S)-2-(aminomethyl)morpholin-4-yl]pyridazin-3-yl]-3,5-dimethyl-phenol; 2,2,2-trifluoroacetic acid]
6.34	< 5.00	COc1ccc(-c2nnc(N3CCO[C@H](CO)C3)cc2C)c(O)c1 [Example 116, 2-[6-[(2S)-2-(hydroxymethyl)morpholin-4-yl]-4-methyl-pyridazin-3-yl]-5-methoxy-phenol]
6.25	< 5.00	COc1cc(C)c(-c2nnc(N3CCO[C@H](CO)C3)cc2C)c(O)c1 [Example 119, 2-[6-[(2S)-2-(hydroxymethyl)morpholin-4-yl]-4-methyl-pyridazin-3-yl]-5-methoxy-3-methyl-phenol]
7.04	< 5.00	Cc1cc(OC(F)(F)F)cc(O)c1-c1ccc(N2CCO[C@H](CO)C2)nn1 [Example 121, 2-[6-[(2S)-2-(hydroxymethyl)morpholin-4-yl]pyridazin-3-yl]-3-methyl-5-(trifluoromethoxy)phenol]
6.83	< 5.00	Cc1cc(C)c(-c2ccc(N3CCC(CO)C3=O)nn2)c(O)c1 (stereo not shown) [Example 122, 1-[6-(2-hydroxy-4,6-dimethyl-phenyl)pyridazin-3-yl]-3-(hydroxymethyl) pyrrolidin-2-one]
6.32	< 5.00	CCC(=O)C1CN(c2ccc(-c3c(C)cc(C)cc3O)nn2)CCO1 (stereo not shown) [Example 126, 1-[4-[6-(2-hydroxy-4,6-dimethylphenyl)pyridazin-3-yl]morpholin-2-yl]propan-1-one]
6.90	< 5.00	Cc1cc(Cl)cc(O)c1-c1ccc(N2CC[C@H](CO)C2)nn1 [Example 127, 5-chloro-2-[6-[(3S)-3-(hydroxymethyl)pyrrolidin-1-yl]pyridazin-3-yl]-3-methyl-phenol]
6.18	< 5.00	CC(=O)NC[C@@H]1COCCN1c1ccc(-c2c(C)cc(C)cc2O)nn1 [Example 129, N-[[(3R)-4-[6-(2-hydroxy-4,6-dimethyl-phenyl)pyridazin-3-yl]morpholin-3-yl]methyl]acetamide]
7.00	< 5.00	Cc1cc(Cl)cc(O)c1-c1ccc(N2C[C@@H](O)CC2=O)nn1 [Example 130, (4S)-1-[6-(4-chloro-2-hydroxy-6-methyl-phenyl)pyridazin-3-yl]-4-hydroxy-pyrrolidin-2-one]
6.41	< 5.00	Cc1cc(C)c(-c2ccc(N3C[C@@H](N)CC3=O)nn2)c(O)c1 [Example 131, (4S)-4-amino-1-[6-(2-hydroxy-4,6-dimethyl-phenyl)pyridazin-3-yl]pyrrolidin-2-one]
6.44	< 5.00	Cc1cc(C(F)(F)F)cc(O)c1-c1ccc(N2C[C@H](O)CC2=O)nn1 [Example 132, (4R)-4-hydroxy-1-[6-[2-hydroxy-6-methyl-4-(trifluoromethyl)phenyl]pyridazin-3-yl]pyrrolidin-2-one]
7.17	< 5.00	Cc1cc(-c2c(C)cc(Cl)cc2O)nnc1N1CCO[C@H](CO)C1 [Example 133, 5-chloro-2-[6-[(2S)-2-(hydroxymethyl)morpholin-4-yl]-5-methyl-pyridazin-3-yl]-3-methyl-phenol]
7.15	< 5.00	Cc1cc(C(F)F)cc(O)c1-c1ccc(N2CCO[C@H](CO)C2)nn1 [Example 134, 5-(difluoromethyl)-2-[6-[(2S)-2-(hydroxymethyl)morpholin-4-yl]pyridazin-3-yl]-3-methyl-phenol]
6.88	< 5.00	Cc1ccc(C)c(-c2ccc(N3CCO[C@H](CO)C3)nn2)c1O [Example 141, 2-[6-[(2S)-2-(hydroxymethyl)morpholin-4-yl]pyridazin-3-yl]-3,6-dimethylphenol]
